Source: ChEMBL document CHEMBL3351613, “Indolylarylsulfones carrying a heterocyclic tail as very potent and broad spectrum HIV-1 non-nucleoside reverse transcriptase inhibitors” (J Med Chem, 2014)
The source made the active and inactive calls. No cut-off for these calls is given here.

Columns and labels:
in vitro = conditions: human, MT4 cells
Description: Selectivity index, ratio of CC50 for human MT4 cells to EC50 for HIV1 NL4-3 infected in human MT4 cells

[1] = tested on: Human immunodeficiency virus 1; format: functional, organism-based; conditions: Human immunodeficiency virus 1, NL4-3, MT4
[2] = tested on: Human immunodeficiency virus 1; format: functional, organism-based; conditions: Human immunodeficiency virus 1, NL4-3, MT4; remark: listed apart in the source
[3] = Cytotoxic activity against human MT4 cells by MTT assay; format: cell-based
[4] = tested on: Human immunodeficiency virus 1; assay: Antiviral activity against HIV1 NL4-3 expressing reverse transcriptase K103N mutant infected in human MT4 cells assessed as reduction in virus-induced cell death by MTT assay; format: functional, organism-based; conditions: Human immunodeficiency virus 1, NL4-3, MT4
[5] = tested on: Human immunodeficiency virus 1; format: functional, organism-based; conditions: Human immunodeficiency virus 1, NL4-3, MT4; remark: listed apart in the source
[6] = tested on: Human immunodeficiency virus 1; assay: Antiviral activity against HIV1 NL4-3 infected in human MT4 cells assessed as reduction in virus-induced cell death by MTT assay; format: functional, organism-based; conditions: Human immunodeficiency virus 1, NL4-3, MT4
[7] = tested on: Human immunodeficiency virus 2; assay: Antiviral activity against HIV2 ROD infected in human CEM cells assessed as protection against virus-induced cytopathicity by giant cell formation assay; format: functional, organism-based; conditions: Human immunodeficiency virus 2, ISOLATE ROD, CCRF-CEM
[8] = target: T1, Human immunodeficiency virus type 1 reverse transcriptase (Human immunodeficiency virus 1, UniProt Q72547)
Description: Inhibition of wild type HIV1 reverse transcriptase assessed as reduction in enzyme activity

[9] = target: Human immunodeficiency virus type 1 reverse transcriptase (Human immunodeficiency virus 1, UniProt Q72547, Y181I)
[10] = target: Human immunodeficiency virus type 1 reverse transcriptase (Human immunodeficiency virus 1, UniProt Q72547, K103N)
Description: Inhibition of wild type HIV1 reverse transcriptase K103N mutant assessed as reduction in enzyme activity

[11] = target: Human immunodeficiency virus type 1 reverse transcriptase (Human immunodeficiency virus 1, UniProt Q72547, L100I)
Description: Inhibition of wild type HIV1 reverse transcriptase L100I mutant assessed as reduction in enzyme activity

[12] = target: Human immunodeficiency virus type 1 reverse transcriptase (Human immunodeficiency virus 1, UniProt Q72547, V106A); assay: Inhibition of […] HIV1 reverse transcriptase V106A mutant assessed as reduction in enzyme activity
[13] = tested on: Human immunodeficiency virus 1; assay: Antiviral activity against HIV1 3B infected in human CEM cells assessed as protection against virus-induced cytopathicity by giant cell formation assay; format: functional, organism-based; conditions: Human immunodeficiency virus 1, 3B, CCRF-CEM
[14] = tested on: Human immunodeficiency virus 1; assay: Antiviral activity against HIV1 NL4-3 expressing reverse transcriptase L100I mutant infected in human MT4 cells assessed as reduction in virus-induced cell death by MTT assay; format: functional, organism-based; conditions: Human immunodeficiency virus 1, NL4-3, MT4
[15] = target: T1, Human immunodeficiency virus type 1 reverse transcriptase; remark: listed apart in the source
[16] = tested on: Human immunodeficiency virus 2; assay: Antiviral activity against HIV2 ROD infected in human PBMC cells assessed as reduction in p24 antigen production; format: functional, organism-based; conditions: ISOLATE ROD
[17] = tested on: Human immunodeficiency virus 1; assay: Antiviral activity against HIV1 Clade D (UG270) infected in human PBMC assessed as reduction in p24 antigen production; format: functional, organism-based; conditions: Human immunodeficiency virus 1, Clade D (UG270)
[18] = tested on: Human immunodeficiency virus 1; assay: Antiviral activity against HIV1 Clade F (BZ162) infected in human PBMC assessed as reduction in p24 antigen production; format: functional, organism-based; conditions: Human immunodeficiency virus 1, Clade F (BZ162)
[19] = tested on: Human immunodeficiency virus 1; assay: Antiviral activity against HIV1 Clade G (HH8793) infected in human PBMC assessed as reduction in p24 antigen production; format: functional, organism-based; conditions: Human immunodeficiency virus 1, Clade G (HH8793)
[20] = tested on: Human immunodeficiency virus 1; assay: Antiviral activity against HIV1 Clade A/E (ID12) infected in human PBMC assessed as reduction in p24 antigen production; format: functional, organism-based; conditions: Human immunodeficiency virus 1, Clade A/E (ID12)
[21] = tested on: Human immunodeficiency virus 1; assay: Antiviral activity against HIV1 Clade B (BaL) infected in human PBMC assessed as reduction in p24 antigen production; format: functional, organism-based; conditions: Human immunodeficiency virus 1, Clade B (BaL)
[22] = tested on: Human immunodeficiency virus 1; assay: Antiviral activity against HIV1 Clade C (DJ259) infected in human PBMC assessed as reduction in p24 antigen production; format: functional, organism-based; conditions: Human immunodeficiency virus 1, Clade C (DJ259)
[23] = tested on: Human immunodeficiency virus 1; assay: Antiviral activity against HIV1 Clade A (UG273) infected in human PBMC assessed as reduction in p24 antigen production; format: functional, organism-based; conditions: Human immunodeficiency virus 1, Clade A (UG273)

Row | SMILES | selectivity ratio (in vitro) | EC50 [1] [nM] | EC50 [2] [nM] | CC50 [3] [nM] | EC50 [4] [nM] | EC50 [5] [nM] | EC50 [6] [nM] | EC50 [7] [nM] | IC50 [8] [nM] | IC50 [9] [nM] | IC50 [10] [nM] | IC50 [11] [nM] | EC50 [13] [nM] | EC50 [14] [nM] | other results
1 | Cc1cccc(C)c1S(=O)(=O)c1c(C(N)=O)[nH]c2ccc(Cl)cc12 | > 1110 | > 48900 | 42700 | > 48900 | > 49400 | > 48900 | 44.1 | – | – | – | – | – | – | – | –
2 | Cc1cc(C)cc(S(=O)(=O)c2c(C(=O)NC(C)c3ccncc3)[nH]c3ccc(Cl)cc23)c1 (racemic) | 151000 | 1110 | 87 | 30200 | 9.4 | – | 0.2 | > 10000 | 40 | 3550 | 220 | 30 | 4.1 | 4.7 | IC50 [12]: 40 nM; IC50 [15]: 3500 nM
3 | Cc1cc(C)cc(S(=O)(=O)c2c(C(=O)NC(C)c3ccccn3)[nH]c3ccc(Cl)cc23)c1 (racemic) | 91000 | 6000 | 230 | 54600 | 34 | – | 0.6 | > 10000 | 64 | 11100 | 100 | 30 | 3.2 | 45 | –
4 | Cc1cc(C)cc(S(=O)(=O)c2c(C(=O)NC(C)c3ccccc3)[nH]c3ccc(Cl)cc23)c1 (stereo unspecified) | > 206000 | – | – | > 53500 | – | – | – | > 10000 | – | 8230 | – | 70 | – | 26 | –
5 | Cc1cc(C)cc(S(=O)(=O)c2c(C(=O)NNc3ccncc3)[nH]c3ccc(Cl)cc23)c1 | 727 | 55000 | > 20000 | 30300 | 16000 | – | 41.7 | ≥ 50000 | > 20000 | > 20000 | > 20000 | 9400 | 730 | – | –
6 | Cc1cc(C)cc(S(=O)(=O)c2c(C(=O)NN(C)c3ccccc3)[nH]c3ccc(Cl)cc23)c1 | 21000 | > 42700 | 1470 | 44100 | 64.1 | > 42700 | 2.1 | – | 16 | > 20000 | 234 | – | – | – | –
7 | Cc1ccnc2c1NC(=O)c1cccnc1N2C1CC1 [NEVIRAPINE] | – | > 3760 | > 3760 | > 18800 | > 3760 | > 3760 | 112 | – | – | – | – | – | – | 60 | –
8 | Cc1cc(C)cc(S(=O)(=O)c2c(C(=O)NC(C)c3cccs3)[nH]c3ccc(Cl)cc23)c1 (stereo unspecified) | 162000 | 2640 | 68 | 32300 | 2.1 | 347 | 0.2 | – | 27 | – | 79 | – | – | – | –
9 | Cc1cc(C)cc(S(=O)(=O)c2c(C(=O)NCc3ccccc3)[nH]c3ccc(Cl)cc23)c1 | 173000 | 1920 | – | 38000 | 0.9 | 90 | 0.22 | – | – | > 20000 | > 20000 | – | – | – | –
10 | Cc1cccc(C)c1S(=O)(=O)c1c(C(=O)NCc2ccncc2)[nH]c2ccc(Cl)cc12 | > 167 | > 55100 | > 55100 | > 55100 | > 55100 | > 55100 | 330 | – | – | – | – | – | – | – | –
11 | Cc1cc(C)cc(S(=O)(=O)c2c(C(=O)Nc3ccncc3)[nH]c3ccc(Cl)cc23)c1 | 89600 | > 20600 | 16 | 20600 | – | 1270 | 0.23 | – | – | – | – | – | – | – | –
12 | Cc1cc(C)cc(S(=O)(=O)c2c(C(=O)NCCc3cccs3)[nH]c3ccc(Cl)cc23)c1 | > 62900 | > 52900 | 160 | > 52900 | 21 | – | 0.84 | > 50000 | 70 | > 20000 | 42 | 1 | 3.4 | 5.4 | –
13 | O=C1Nc2ccc(Cl)cc2[C@@](C#CC2CC2)(C(F)(F)F)O1 [EFAVIRENZ] | – | > 317 | – | > 15800 | – | – | – | – | – | – | – | – | – | 22 | –
14 | O=C(NCc1ccncc1)c1[nH]c2ccc(Cl)cc2c1S(=O)(=O)c1c(Cl)cccc1Cl | > 62400 | > 50500 | 2530 | > 50300 | 5260 | > 50500 | 0.81 | – | – | – | – | – | – | – | –
15 | Cc1cc(C)cc(S(=O)(=O)c2c(C(=O)Nc3cccc(N)c3)[nH]c3ccc(Cl)cc23)c1 | 108000 | 2140 | 66 | 23800 | 4.4 | 947 | 0.22 | – | 19 | 226 | 310 | – | 17 | 57 | –
16 | NC(=O)c1[nH]c2ccc(Cl)cc2c1S(=O)(=O)c1c(Cl)cccc1Cl | 64100 | 16000 | 5170 | 16000 | > 16000 | > 16000 | 0.25 | – | – | – | – | – | – | – | –
17 | Cc1cc(C)cc(S(=O)(=O)c2c(C(=O)NCc3ccncn3)[nH]c3ccc(Cl)cc23)c1 | > 250000 | 132 | 2.2 | > 55000 | – | 50.6 | 0.22 | – | 42 | 4.2 | 96 | – | – | – | –
18 | Cc1cc(C)cc(S(=O)(=O)c2c(C(=O)NCCc3ccccc3)[nH]c3ccc(Cl)cc23)c1 | 18000 | > 53500 | 107 | 37900 | 21 | > 36400 | 2.1 | – | – | > 20000 | – | – | – | – | –
19 | Cc1cc(C#N)cc(C)c1Oc1nc(Nc2ccc(C#N)cc2)nc(N)c1Br [ETRAVIRINE] | – | 16 | 6 | > 30600 | 16 | 33 | 3.7 | – | – | – | – | – | – | – | –
20 | Cc1cc(C)cc(S(=O)(=O)c2c(C(=O)N[C@@H](C)c3ccncc3)[nH]c3ccc(Cl)cc23)c1 | – | 4120 | 128 | – | 4.3 | 5170 | 0.2 | – | 40 | – | 700 | 20 | – | – | Activity [16]: inactive; EC50 [17]: 4.3 nM; IC50 [12]: 55 nM; EC50 [18]: 4.9 nM; EC50 [19]: 3.6 nM; EC50 [20]: 4.1 nM; EC50 [21]: 2 nM; IC50 [15]: 110000 nM; EC50 [22]: 1.4 nM; EC50 [23]: 5.2 nM
21 | Cc1cc(C)cc(S(=O)(=O)c2c(C(=O)NCc3ccco3)[nH]c3ccc(Cl)cc23)c1 | > 282000 | 971 | 0.8 | > 56400 | – | 45 | 0.2 | – | 3 | 234 | 9 | – | – | – | –
22 | Cc1cc(C)cc(S(=O)(=O)c2c(C(=O)NCc3cccs3)[nH]c3ccc(Cl)cc23)c1 | > 77800 | > 54500 | 160 | > 54500 | 9.1 | – | 0.7 | > 10000 | 30 | > 20000 | > 20000 | 100 | 5.2 | 7.1 | –
23 | Cc1cc(C)cc(S(=O)(=O)c2c(C(=O)NCCn3c([N+](=O)[O-])cnc3C)[nH]c3ccc(Cl)cc23)c1 | 40900 | > 48500 | 670 | 25400 | 140 | – | 0.62 | > 10000 | 44 | 131 | 640 | 160 | 4.1 | 140 | –
24 | Cc1cc(C)cc(S(=O)(=O)c2c(C(=O)NC(C)c3cccnc3)[nH]c3ccc(Cl)cc23)c1 (racemic) | 91000 | 8480 | 220 | 54600 | 34 | – | 0.6 | > 10000 | 100 | > 20000 | 120 | 20 | 6.6 | 20 | –
